According to US20020035061A1, “COMPOSITIONS AND METHODS FOR TREATING INFECTIONS USING CATIONIC PEPTIDES ALONE OR IN COMBINATION WITH ANTIBIOTICS” (priority 1996, published 2002):

Assays:
[1] = test system: vancomycin / teicoplanin resistant enterococci; assay: microbe, parasite or virus in culture; type: cell-based; settings: for Vancomycin MIC + Peptide: in combination with the labelled peptide; for Peptide MIC + Vancomycin: in combination with vancomycin
[2] = test system: microorganisms with acquired resistance; assay: microbe, parasite or virus in culture; type: cell-based; settings: for Peptide MIC: in µg/mL

KWKSFIKKLTSAAKKVVTTAKPLISS [MBI 26]
0.27: FIC ([1]; Vancomycin + peptide, E. faecalis EFS010)
64 µg/mL: MBI 26 Alone (MIC) ([1]; E. faecalis VanA strains) | Peptide MIC Alone ([1]; E. faecium EFM004) | Peptide MIC Alone ([1]; E. faecium EFM004, Amikacin section) | Peptide MIC Alone ([1]; E. faecium EFM020, Amikacin section) | Peptide MIC + Gentamicin ([2]; P. aeruginosa PA023) | Peptide MIC Alone ([2]; P. aeruginosa PA041, Gentamicin section) | Peptide MIC + Ciprofloxacin ([2]; P. aeruginosa PA77)
0.56: FIC ([1]; peptide + Amikacin, E. faecium EFM004)
4: Peptide MIC ([2]; A. calcoaceticus, combination with Ciprofloxacin) | Peptide MIC ([2]; S. aureus, combination with Mupirocin)
become susceptible to vancomycin: susceptibility of vancomycin resistant enterococci (VRE) to vancomycin ([1]; vancomycin in combination with peptide)
0.53: FIC ([1]; Vancomycin + peptide, E. faecium EFM010)
>32 µg/mL: Peptide MIC Alone ([2]; A. calcoaceticus 5, Ciprofloxacin section) | Peptide MIC Alone ([2]; A. calcoaceticus 7, Piperacillin section) | Peptide MIC Alone ([2]; E. cloacae 13, Piperacillin section) | Peptide MIC Alone ([2]; E. cloacae 16, Ciprofloxacin section) | Peptide MIC Alone ([2]; E. cloacae 17, Ciprofloxacin section) | Peptide MIC Alone ([2]; E. cloacae 19, Piperacillin section) | Peptide MIC Alone ([2]; P. aeruginosa 26, Piperacillin section) | Peptide MIC Alone ([2]; P. aeruginosa 30, Ciprofloxacin section) | Peptide MIC Alone ([2]; P. aeruginosa 31, Ciprofloxacin section)
become susceptible to teicoplanin: susceptibility of teicoplanin resistant enterococci to teicoplanin ([1]; teicoplanin in combination with peptide)
128 µg/mL: Peptide MIC Alone ([2]; P. aeruginosa PA41, Ciprofloxacin section) | Peptide MIC Alone ([2]; P. aeruginosa PA77, Ciprofloxacin section)
2 µg/mL: Vancomycin MIC + Peptide ([1]; E. faecalis EFS011) | Vancomycin MIC + Peptide ([1]; E. faecium EFM011) | Peptide MIC Alone ([2]; A. baumannii ABI005, Ceftriaxone section) | Peptide MIC Alone ([2]; A. baumannii ABI006, Ceftriaxone section) | Peptide MIC + Ciprofloxacin ([2]; P. aeruginosa 30)
32: Peptide MIC ([2]; A. calcoaceticus, combination with Ceftazidime)
0.25 µg/mL: Ciprofloxacin MIC + Peptide ([2]; A. calcoaceticus 5) | Ciprofloxacin MIC + Peptide ([2]; E. cloacae 16) | Ciprofloxacin MIC + Peptide ([2]; E. cloacae 17) | Ciprofloxacin MIC + Peptide ([2]; P. aeruginosa 30) | Ciprofloxacin MIC + Peptide ([2]; P. aeruginosa 31)
1 µg/mL: Vancomycin MIC + Peptide ([1]; E. faecalis EFS010) | Vancomycin MIC + Peptide ([1]; E. faecium EFM010) | Peptide MIC + Vancomycin ([1]; E. faecalis EFS010) | Peptide MIC + Ceftriaxone ([2]; A. baumannii ABI005) | Peptide MIC + Ceftriaxone ([2]; A. baumannii ABI006) | Ciprofloxacin MIC + Peptide ([2]; P. aeruginosa PA41)
0.31: FIC ([1]; Vancomycin + peptide, E. faecalis EFS005) | FIC ([1]; Vancomycin + peptide, E. faecium EFM011)
0.125 µg/mL: Vancomycin MIC + Peptide ([1]; E. faecium EFM004) | Peptide MIC + Ceftriaxone ([2]; B. cepacia BC003) | Ciprofloxacin MIC + Peptide ([2]; P. aeruginosa PA77)
0.25: FIC ([1]; Vancomycin + peptide, E. faecalis EFS011) | FIC ([1]; Vancomycin + peptide, E. faecium EFM004) | Peptide MIC ([2]; S. aureus, combination with Ampicillin)
16 µg/mL: Peptide MIC + Vancomycin ([1]; E. faecalis EFS005) | Peptide MIC + Vancomycin ([1]; E. faecium EFM004) | Peptide MIC + Vancomycin ([1]; E. faecium EFM010) | Peptide MIC + Piperacillin ([2]; A. calcoaceticus 2) | Peptide MIC + Ciprofloxacin ([2]; A. calcoaceticus 5) | Peptide MIC + Ciprofloxacin ([2]; E. cloacae 16) | Peptide MIC + Ciprofloxacin ([2]; E. cloacae 17) | Peptide MIC + Piperacillin ([2]; E. cloacae 19) | Peptide MIC + Piperacillin ([2]; H. influenzae 2) | Piperacillin MIC + Peptide ([2]; H. influenzae 2) | Peptide MIC + Ciprofloxacin ([2]; P. aeruginosa 31) | Peptide MIC + Tobramycin ([2]; P. aeruginosa PA031) | Peptide MIC + Gentamicin ([2]; P. aeruginosa PA041)
>64 µg/mL: Peptide MIC Alone ([2]; P. aeruginosa 23, Piperacillin section)
4 µg/mL: Peptide MIC Alone ([1]; E. faecalis EFS010) | Vancomycin MIC + Peptide ([1]; E. faecalis EFS005) | Gentamicin MIC + Peptide ([2]; A. baumannii ABI001) | Peptide MIC + Gentamicin ([2]; A. baumannii ABI001) | Peptide MIC + Gentamicin ([2]; A. baumannii ABI002) | Piperacillin MIC + Peptide ([2]; A. calcoaceticus 2) | Piperacillin MIC + Peptide ([2]; A. calcoaceticus 7) | Piperacillin MIC + Peptide ([2]; E. cloacae 13) | Piperacillin MIC + Peptide ([2]; E. cloacae 19) | Ceftriaxone MIC + Peptide ([2]; E. cloacae ECL015) | Peptide MIC + Ceftriaxone ([2]; E. cloacae ECL015) | Piperacillin MIC + Peptide ([2]; H. influenzae 1) | Piperacillin MIC + Peptide ([2]; P. aeruginosa 23) | Gentamicin MIC + Peptide ([2]; P. aeruginosa PA023) | Tobramycin MIC + Peptide ([2]; P. aeruginosa PA031) | Gentamicin MIC + Peptide ([2]; P. aeruginosa PA041)
32 µg/mL: Peptide MIC + Amikacin ([1]; E. faecium EFM004) | Peptide MIC Alone ([1]; E. faecium EFM010) | Peptide MIC Alone ([1]; E. faecium EFM011) | Peptide MIC + Amikacin ([1]; E. faecium EFM020) | Peptide MIC + Vancomycin ([1]; E. faecalis EFS011) | Peptide MIC Alone ([2]; A. calcoaceticus 2, Piperacillin section) | Peptide MIC Alone ([2]; E. cloacae ECL015, Ceftriaxone section) | Peptide MIC + Piperacillin ([2]; H. influenzae 1) | Peptide MIC + Piperacillin ([2]; P. aeruginosa 7) | Piperacillin MIC + Peptide ([2]; P. aeruginosa 7) | Peptide MIC + Piperacillin ([2]; P. aeruginosa 23) | Peptide MIC + Piperacillin ([2]; P. aeruginosa 26) | Peptide MIC Alone ([2]; P. aeruginosa PA031, Tobramycin section) | Peptide MIC + Ciprofloxacin ([2]; P. aeruginosa PA41)
0.5 µg/mL: Gentamicin MIC + Peptide ([2]; A. baumannii ABI002) | Ceftriaxone MIC + Peptide ([2]; A. baumannii ABI005)
>128 µg/mL: Peptide MIC Alone ([1]; E. faecalis EFS005) | Peptide MIC Alone ([1]; E. faecalis EFS011) | Peptide MIC Alone ([2]; B. cepacia BC003, Ceftriaxone section) | Peptide MIC Alone ([2]; H. influenzae 1, Piperacillin section) | Peptide MIC Alone ([2]; H. influenzae 2, Piperacillin section) | Peptide MIC Alone ([2]; P. aeruginosa 7, Piperacillin section) | Peptide MIC Alone ([2]; P. aeruginosa PA023, Gentamicin section)
0.75: FIC ([1]; peptide + Amikacin, E. faecium EFM020)
8 µg/mL: MBI 26 + Teicoplanin (MIC) ([1]; E. faecalis VanA strains, in combination with teicoplanin) | Amikacin MIC + Peptide ([1]; E. faecium EFM004) | Amikacin MIC + Peptide ([1]; E. faecium EFM020) | Peptide MIC + Vancomycin ([1]; E. faecium EFM011) | Peptide MIC Alone ([2]; A. baumannii ABI001, Gentamicin section) | Peptide MIC Alone ([2]; A. baumannii ABI002, Gentamicin section) | Ceftriaxone MIC + Peptide ([2]; A. baumannii ABI006) | Peptide MIC + Piperacillin ([2]; A. calcoaceticus 7) | Ceftriaxone MIC + Peptide ([2]; B. cepacia BC003) | Peptide MIC + Piperacillin ([2]; E. cloacae 13) | Piperacillin MIC + Peptide ([2]; P. aeruginosa 26)
